Measurements from patent US20250026752A1, “POSITIVE ALLOSTERIC MODULATORS OF THE MUSCARINIC ACETYLCHOLINE RECEPTOR M4” (Vanderbilt University, priority 2021, published 2025).

Biological target: T1, human mAChR M4 (Homo sapiens, UniProt P08173)
T1 construct: expressed in transfected cells; host or cells: CHO-K1 (ATCC), stably expressing hM4 and Gqi5
T1 sequence (P08173 1-479): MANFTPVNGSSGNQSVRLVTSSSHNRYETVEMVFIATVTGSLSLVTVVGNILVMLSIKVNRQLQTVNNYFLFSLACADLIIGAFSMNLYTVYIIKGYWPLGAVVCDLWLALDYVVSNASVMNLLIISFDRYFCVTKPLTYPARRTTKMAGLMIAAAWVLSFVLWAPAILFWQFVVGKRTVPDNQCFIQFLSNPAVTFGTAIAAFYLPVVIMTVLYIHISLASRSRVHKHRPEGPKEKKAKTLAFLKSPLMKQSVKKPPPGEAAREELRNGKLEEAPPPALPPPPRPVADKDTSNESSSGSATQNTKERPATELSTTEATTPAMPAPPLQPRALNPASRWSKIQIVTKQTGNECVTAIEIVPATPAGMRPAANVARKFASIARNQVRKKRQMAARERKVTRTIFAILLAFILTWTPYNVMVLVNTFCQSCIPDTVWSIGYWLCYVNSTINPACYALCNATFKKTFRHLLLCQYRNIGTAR
Assay: mAChR M4 cell-based functional assay: calcium flux (Fluo-4, FDSS), positive allosteric modulator activity on the EC20 acetylcholine response, hM4-Gqi5 CHO-K1 cells
Conditions: for Emax at 30 µM: CHO-K1, human M4, % ACh maximum at 30 μM; for EC50: human M4, PAM activity on EC20 acetylcholine response, calcium flux, read-out: Human M4 EC50
Method in brief: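 Potentiation was taken as the concentration-dependent rise in the EC20 acetylcholine calcium response, fitted by a four-parameter logistic with EC20 as baseline. Fluo-4-loaded hM4-Gqi5 CHO-K1 cells received 11-point, threefold-diluted compound before acetylcholine at 144 s; FDSS read at 1 Hz.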

Structure (SMILES)	Emax at 30 µM [%]	EC50 [nM]
CC1CN(c2ncnc3cc(F)c(F)cc23)Cc2cc(N3CCOCC3)cnc21 (stereo not drawn) [Compound 252, 4-(6-(6,7-difluoroquinazolin-4-yl)-8-methyl-5,6,7,8-tetrahydro-1,6-naphthyridin-3-yl)morpholine]	90	150
Cc1ccc2nc(C)nc(N3CCc4ncc(-c5cc(F)ccc5C)cc4C3)c2c1 [Compound 317, 4-(3-(5-fluoro-2-methylphenyl)-7,8-dihydro-1,6-naphthyridin-6(5H)-yl)-2,6-dimethylquinazoline]	91	2800
CN1CCN(c2cnc3c(c2)CN(c2ncnc4cc(F)c(F)cc24)CC3)CC12COC2 [Compound 284, 8-(6-(6,7-difluoroquinazolin-4-yl)-5,6,7,8-tetrahydro-1,6-naphthyridin-3-yl)-5-methyl-2-oxa-5,8-diazaspiro[3.5]nonane]	104	500
CC1(C)CN(c2cnc3c(c2)CN(c2ncnc4cc(F)c(F)cc24)CC3)CCO1 [Compound 242, 4-(6-(6,7-difluoroquinazolin-4-yl)-5,6,7,8-tetrahydro-1,6-naphthyridin-3-yl)-2,2-dimethylmorpholine]	90	30
COc1ccc2nc(C)nc(N3CCc4ncc(-c5ccccc5C)cc4C3)c2c1 [Compound 314, 6-methoxy-2-methyl-4-(3-(o-tolyl)-7,8-dihydro-1,6-naphthyridin-6(5H)-yl)quinazoline]	77	4670
Cc1nc(N2CCc3ncc(N4CCCn5nccc54)cc3C2)c2cc(Cl)ccc2n1 [Compound 84]	114	230
Fc1cc2c(N3CCc4ncc(N5CCCn6nccc65)cc4C3)nc(Cl)nc2cc1Cl [Compound 109, 2,7-dichloro-4-[3-(6,7-dihydro-5H-pyrazolo[1,5-a]pyrimidin-4-yl)-7,8-dihydro-5H-1,6-naphthyridin-6-yl]-6-fluoro-quinazoline]	80	460
Fc1cc2ncnc(N3CCc4ncc(-c5ccnn5C5COC5)cc4C3)c2cc1F [Compound 269, 6,7-difluoro-4-(3-(1-(oxetan-3-yl)-1H-pyrazol-5-yl)-7,8-dihydro-1,6-naphthyridin-6(5H)-yl)quinazoline]	79	1600
Cc1noc(C)c1-c1cnc2c(c1)CN(c1nc(Cl)nc3ccc(F)cc13)CC2 [Compound 29, 4-[6-(2-chloro-6-fluoro-quinazolin-4-yl)-7,8-dihydro-5H-1,6-naphthyridin-3-yl]-3,5-dimethyl-isoxazole]	97	260
[2H]c1nc2c(cc1N1CCOC(C)(C)C1)CN(c1ncnc3ccc(F)cc13)CC2 [Compound 228, 4-(6-(6-fluoroquinazolin-4-yl)-5,6,7,8-tetrahydro-1,6-naphthyridin-3-yl-2-d)-2,2-dimethylmorpholine]	97	40
Fc1ccc2ncnc(N3CCc4ncc(C(F)(F)F)cc4C3)c2c1 [Compound 122, 6-fluoro-4-[3-(trifluoromethyl)-7,8-dihydro-5H-1,6-naphthyridin-6-yl]quinazoline]	89	90
Cc1nc(N2CCc3ncc(-c4cnc(C)s4)cc3C2)c2cc(Cl)ccc2n1 [Compound 48, 5-[6-(6-chloro-2-methyl-quinazolin-4-yl)-7,8-dihydro-5H-1,6-naphthyridin-3-yl]-2-methyl-thiazole]	92	270
Fc1ccc2ncnc(N3CCc4ncc(-c5ccnn5C5COC5)cc4C3)c2c1 [Compound 265, 6-fluoro-4-(3-(1-(oxetan-3-yl)-1H-pyrazol-5-yl)-7,8-dihydro-1,6-naphthyridin-6(5H)-yl)quinazoline]	76	500
COc1cc2c(N3CCc4ncc(-c5cn(C)nc5C)cc4C3)nc(Cl)nc2cc1F [Compound 60, 2-chloro-4-[3-(1,3-dimethylpyrazol-4-yl)-7,8-dihydro-5H-1,6-naphthyridin-6-yl]-7-fluoro-6-methoxy-quinazoline]	52	510
Cc1nn(C)cc1-c1cnc2c(c1)CN(c1nc(Cl)nc3ccc(F)cc13)CC2 [Compound 31, 2-chloro-4-[3-(1,3-dimethylpyrazol-4-yl)-7,8-dihydro-5H-1,6-naphthyridin-6-yl]-6-fluoro-quinazoline]	95	230
Cc1ccc(F)c(Oc2cnc3c(c2)CN(c2ncnc4ccc(F)cc24)CC3)c1 [Compound 148, 6-fluoro-4-[3-(2-fluoro-5-methyl-phenoxy)-7,8-dihydro-5H-1,6-naphthyridin-6-yl]quinazoline]	88	760
COc1ccc2ncnc(N3CCc4ncc(N5CCCn6nccc65)cc4C3)c2c1 [Compound 77, 4-[3-(6,7-dihydro-5H-pyrazolo[1,5-a]pyrimidin-4-yl)-7,8-dihydro-5H-1,6-naphthyridin-6-yl]-6-methoxy-quinazoline]	127	70
Fc1cccc(Oc2cnc3c(c2)CN(c2ncnc4cc(F)c(F)cc24)CC3)c1 [Compound 159, 6,7-difluoro-4-[3-(3-flurophenoxy)-7,8-dihydro-5H-1,6-naphthyridin-6-yl]quinazoline]	81	680
Fc1cc2c(N3CCc4ncc(C(F)(F)F)cc4C3)nc(N3CCOCC3)nc2cc1Cl [Compound 209, 4-[7-chloro-6-fluoro-4-[3-(trifluoromethyl)-7,8-dihydro-5H-1,6-naphthyridin-6-yl]quinazolin-2-yl]morpholine]	50	> 10000
Fc1cc2ncnc(N3CCc4ncc(N5CCCn6nccc65)cc4C3)c2cc1F [Compound 93, 4-[3-(6,7-dihydro-5H-pyrazolo[1,5-a]pyrimidin-4-yl)-7,8-dihydro-5H-1,6-naphthyridin-6-yl]-6,7-difluoro-quinazoline]	109	50
Fc1ccc2nc(C3CC3)nc(N3CCc4ncc(N5CCCn6nccc65)cc4C3)c2c1 [Compound 194, 2-cyclopropyl-4-[3-(6,7-dihydro-5H-pyrazolo[1,5-a]pyrimidin-4-yl)-7,8-dihydro-5H-1,6-naphthyridin-6-yl]-6-fluoro-quinazoline]	10	230
Fc1ccc2ncnc(N3CCc4ncc(Oc5ccccc5F)cc4C3)c2c1 [Compound 113, 6-fluoro-4-[3-(2-fluorophenoxy)-7,8-dihydro-5H-1,6-naphthyridin-6-yl]quinazoline]	69	160
c1cnc2nc(N3CCOCC3)nc(N3CCc4ncc(N5CCCn6nccc65)cc4C3)c2c1 [Compound 250, 4-(4-(3-(6,7-dihydropyrazolo[1,5-a]pyrimidin-4(5H)-yl)-7,8-dihydro-1,6-naphthyridin-6(5H)-yl)pyrido[2,3-d]pyrimidin-2-yl)morpholine]	73	360
Cc1nc(N2CCc3ncc(C(F)(F)F)cc3C2)c2c(F)cccc2n1 [Compound 125, 5-fluoro-2-methyl-4-[3-(trifluoromethyl)-7,8-dihydro-5H-1,6-naphthyridin-6-yl]quinazoline]	78	400
CC1CN(c2ncnc3ccc(F)cc23)Cc2cc(NC3CCCC3)cnc21 (stereo not drawn) [Compound 233, N-cyclopentyl-6-(6-fluoroquinazolin-4-yl)-8-methyl-5,6,7,8-tetrahydro-1,6-naphthyridin-3-amine]	84	410
COc1ccc2ncnc(N3CCc4ncc(Nc5cccnc5F)cc4C3)c2c1 [Compound 81, N-(2-fluoro-3-pyridyl)-6-(6-methoxyquinazolin-4-yl)-7,8-dihydro-5H-1,6-naphthyridin-3-amine]	95	460
Cc1ccc(-c2cnc3c(c2)CN(c2nc(C)nc4ccc(Cl)cc24)CC3)cn1 [Compound 51, 6-chloro-2-methyl-4-[3-(6-methyl-3-pyridyl)-7,8-dihydro-5H-1,6-naphthyridin-6-yl]quinazoline]	95	290
Cc1ccc2nc(Cl)nc(N3CCc4ncc(C(F)(F)F)cc4C3)c2c1 [Compound 119, 2-chloro-6-methyl-4-[3-(trifluoromethyl)-7,8-dihydro-5H-1,6-naphthyridin-6-yl]quinazoline]	95	110
Cc1nc(N2CCc3ncc(-c4cn(C)nc4C)cc3C2)c2cc(F)ccc2n1 [Compound 10, 4-[3-(1,3-dimethylpyrazol-4-yl)-7,8-dihydro-5H-1,6-naphthyridin-6-yl]-6-fluoro-2-methyl-quinazoline]	90	120
COc1ccc2ncnc(N3CCc4ncc(C(F)(F)F)cc4C3)c2c1 [Compound 139, 6-methoxy-4-[3-(trifluoromethyl)-7,8-dihydro-5H-1,6-naphthyridin-6-yl]quinazoline]	97	200
